{
  "source": "patent US8702939B2",
  "about": "“Electrotaxis methods and devices” (McMaster University, priority 2010, dated 2014)",
  "assay_type_in_all_cases": "in vivo, Caenorhabditis elegans",
  "key": {"C. elegans [1]": {"system": "C. elegans", "assay": "microfluidic electrotaxis assay of toxin/drug-exposed worms (U-turn, head movement, speed)", "conditions": "for movement speed response of toxin-treated animals: abnormal = slower than 215 μm/sec, 3V/cm", "method": "The toxins 6-OHDA (catalog no. 162957), Rotenone (catalog no. R8875) and Acetaminophen (catalog no. A7085) were obtained from Sigma Aldrich. MPTP (M325913) was from Toronto Research Chemicals. […] 6-OHDA solution is sensitive to light and therefore it was kept in the dark. A stock solution of Acetaminophen (10 mM) was prepared and stored at −20° C. At the time of toxin assay, the stock solution was diluted to 100 μM final concentration.\n(§1) All assays with toxins were done using L1 stage worms. Synchronized L1 worms were exposed to toxin solutions for different time periods with mild shaking on a rotating platform. At the end of the time period, tubes were briefly centrifuged to remove drug solution and worm pellets were diluted with […] and were plated on normal NG agar plates.\n(§2) Experimental design was as described Rezai et al., ibid. Electric field was fixed at 3V/cm. Then, the direction of the electric field was changed and the worm was allowed to move the same distance in the opposite direction. The movement of each worm was recorded using a Nikon Coolpix P5100, NY, USA. The captured videos were analyzed using the ImageJ NIH image module. Three parameters—U-turn, head movement and speed—were used to characterize the behaviour of animals. For U-turn, the time (in seconds) that was taken by a moving worm to come to a stop and turn to the opposite direction after the electric field direction was reversed was recorded. Most wild type worms (˜90%, see results) were able to change direction in less than 10 seconds. Worms taking 10 sec or longer were considered to have an abnormal response. For the head movement analysis, the number of full sine waves (i.e., spanning up to three-fourth of the channel width) that a worm makes within a 30 sec. duration were determined. Wild-type worms make full sine waves in majority of cases with failures typically being less than 25%. Therefore, a threshold of 25% to place a worm in normal or abnormal category was used. […] To analyze speed, the time taken by a worm to move a distance of 5000 μm in a given direction was used. Speed was measured in both directions of movement and the average value was used as a true response. Wild type animals typically moved with a speed of 215 μm/sec and above. Therefore, animals moving slower than 215 μm/sec were considered to have an abnormal response."}, "C. elegans [2]": {"system": "C. elegans", "conditions": "for movement defects on plate: lowered concentration and exposure time, slow reaction when touched on head or tail", "method": "as §1\nThese phenotypes are in agreement with published studies."}, "DA neurons": {"system": "DA neurons", "assay": "toxin-induced degeneration of DA neurons in dat-1p::yfp transgenic animals", "excerpt": "In some cases, the entire dendritic processes were missing."}, "C. elegans [3]": {"system": "C. elegans", "assay": "channel-based drug-screening assay: acetaminophen pre-treatment against neurotoxins (electrotaxis)", "method": "The toxins 6-OHDA (catalog no. 162957), Rotenone (catalog no. R8875) and Acetaminophen (catalog no. A7085) were obtained from Sigma Aldrich. MPTP (M325913) was from Toronto Research Chemicals. Desired concentrations of 6-OHDA (100 μM), MPTP (700 μM) and Rotenone (25 μM) were prepared in M9 one day before the assay and stored at −20° C. 6-OHDA solution is sensitive to light and therefore it was kept in the dark. A stock solution of Acetaminophen (10 mM) was prepared and stored at −20° C. At the time of toxin assay, the stock solution was diluted to 100 μM final concentration.\nas §2\nIn order to establish a baseline to screen for neuroprotective compounds in a channel-based assay, the neuroprotective effect of acetaminophen (a known analgesic) against neurodegeneration caused by toxinsas tested.\nPre-treatment of worms with acetaminophen (100 uM, 24 hrs exposure during L1 stage) prior to treatment with 6-0H DA as above, conferred a significant protection on the worms as evidenced by the electrotactic response of worms using all 3 movement parameters described above. The protection ranged from 30% to 50% (FIG. 34). […] The defect in head movement was decreased by 40% and U-turn by 30%. The impact of Acetaminophen on Rotenone-induced neuronal toxicity and provide first evidence that Acetaminophen protects DA neurons from the toxic effects of Rotenone. While the head movement defect was decreased by 20%, abnormalities in U-turn response and speed were lower by 50% and 38%, respectively."}},
  "data": [
    {"molecule": "NCCc1cc(O)c(O)cc1O", "note": "[6-OHDA, 6-hydroxydopamine]", "values": [
      {"measurement": "electrotactic response in channel", "setting": "C. elegans [1]; 100 μM 6-OHDA for as little as 30 min", "value": "abnormal electrotactic response"},
      {"measurement": "electrotactic response in channel", "setting": "C. elegans [1]; 5 mM 6-OHDA treated L1 animals", "value": "practically immobile and unresponsive to the electric field stimulus"},
      {"measurement": "U-turn defect, proportion of worms", "setting": "C. elegans [1]; 6-OHDA 100 μM, within 4 hour exposure of L1 worms, electric field 3V/cm, abnormal = 10 sec or longer", "value": "30-80%"},
      {"measurement": "defective head movement response, proportion of worms", "setting": "C. elegans [1]; 6-OHDA, 30 minutes toxin exposure", "value": "about one-third"},
      {"measurement": "defective head movement response, proportion of animals", "setting": "C. elegans [1]; 6-OHDA, 1 hr exposure", "value": 50, "unit": "%"},
      {"measurement": "defective head movement response, proportion of worms", "setting": "C. elegans [1]; 6-OHDA, 4 hour exposure", "value": 61, "unit": "%"},
      {"measurement": "movement speed response of toxin-treated animals", "setting": "C. elegans [1]", "value": "most defective response compared to the other 2 toxins"},
      {"measurement": "phenotype of treated L1 animals", "setting": "C. elegans [2]; 5 mM 6-OHDA", "value": "extreme sluggishness, uncoordinated movement, protruding vulva, growth arrest and early larval lethality"},
      {"measurement": "weak uncoordinated phenotype, proportion of worms (plate)", "setting": "C. elegans [2]; 6-OHDA, 30 min exposure", "value": "one-quarter"},
      {"measurement": "morphological defects on plate", "setting": "C. elegans [2]; 6-OHDA, 4 hr exposure", "value": "morphological defects such as protruding vulva (Pvl)"},
      {"measurement": "uncoordinated phenotype, proportion of animals (plate)", "setting": "C. elegans [2]; 6-OHDA, 4 hr exposure", "value": 86, "unit": "%"},
      {"measurement": "degeneration of DA neurons", "setting": "DA neurons; 6-OHDA 100 μM for 4 hours", "value": "did not cause an obvious degeneration of DA neurons"},
      {"measurement": "animals with DA neuron (CEP dendritic process) defects", "setting": "DA neurons; 6-OHDA 100 μM, longer exposure ~71 hrs", "value": 15, "unit": "%"}
    ]},
    {"molecule": "CN1CC=C(c2ccccc2)CC1", "note": "[MPTP, 1-methyl 4-phenyl 1,2,3,6-tetrahydropyridine]", "values": [
      {"measurement": "electrotactic response in channel", "setting": "C. elegans [1]; 700 μM MPTP for up to 8 hrs", "value": "obvious defects in the channel assay"},
      {"measurement": "head movement defects, proportion of worms", "setting": "C. elegans [1]; MPTP, 4 hr exposure", "value": 80, "unit": "%"},
      {"measurement": "movement speed response of toxin-treated animals", "setting": "C. elegans [1]", "value": "wild type response in all 3 conditions tested"},
      {"measurement": "appearance on NG agar plates", "setting": "C. elegans [2]; 700 μM MPTP for up to 8 hrs", "value": "fairly active and healthy"},
      {"measurement": "phenotype of treated L1 worms", "setting": "C. elegans [2]; 1.4 mM MPTP for 3 days", "value": "almost completely uncoordinated and paralyzed"},
      {"measurement": "movement defects on plate", "setting": "C. elegans [2]", "value": "only subtle and low penetrant movement defects"}
    ]},
    {"molecule": "C=C(C)[C@H]1Cc2c(ccc3c2O[C@@H]2COc4cc(OC)c(OC)cc4[C@@H]2C3=O)O1", "note": "[Rotenone]", "values": [
      {"measurement": "electrotactic movement", "setting": "C. elegans [1]; 25 μM Rotenone for 1-8 hr", "value": "abnormal electrotactic movement"},
      {"measurement": "defect in the speed of animals", "setting": "C. elegans [1]; Rotenone exposure", "value": 48, "unit": "%"},
      {"measurement": "abnormal head movement response, proportion of worms", "setting": "C. elegans [1]; Rotenone, after 8 hrs of toxin exposure", "value": "up to 30%"},
      {"measurement": "appearance on the plate", "setting": "C. elegans [2]; 25 μM Rotenone for 1-8 hr", "value": "largely healthy"},
      {"measurement": "morphology of exposed worms", "setting": "C. elegans [2]; 25 μM rotenone for less than 12 hrs", "value": "morphological defects similar to MPTP"},
      {"measurement": "movement defects on plate", "setting": "C. elegans [2]", "value": "only subtle and low penetrant movement defects"}
    ]},
    {"molecule": "CC(=O)Nc1ccc(O)cc1", "note": "[acetaminophen]", "values": [
      {"measurement": "decrease of U-turn defect", "setting": "C. elegans [3]; MPTP", "value": 30, "unit": "%"},
      {"measurement": "decrease of head movement defect", "setting": "C. elegans [3]; MPTP", "value": 40, "unit": "%"},
      {"measurement": "decrease of abnormalities in U-turn response", "setting": "C. elegans [3]; Rotenone", "value": 50, "unit": "%"},
      {"measurement": "decrease of abnormalities in speed", "setting": "C. elegans [3]; Rotenone", "value": 38, "unit": "%"},
      {"measurement": "decrease of head movement defect", "setting": "C. elegans [3]; Rotenone", "value": 20, "unit": "%"}
    ]},
    {"molecule": "c1ccc([C@H]2CN3CCSC3=N2)cc1", "note": "[levamisole]", "values": [
      {"measurement": "movement response in microfluidic channel", "setting": "C. elegans [1]; 10 μM levamisole, only 5 worms tested", "value": "reduced movement"}
    ]}
  ]
}
